Measurements published in US11254686B1 (Corvus Pharmaceuticals, Inc., priority 2017, dated 2022).

How the values were obtained:
adenosine A2B receptor = adenosine A2B receptor (Homo sapiens (Human), UniProt P29275); assay: Adenosine receptor activity assay (Table 1), A2B activity; assay type: biochemical; conditions: for Ratio: A2A activity to A2B activity (A2A/A2B); for IC50: read-out: Ave A2B cAMP IC50
adenosine A2A receptor = adenosine A2A receptor (Homo sapiens (Human), UniProt P29274); assay: Adenosine receptor activity assay (Table 1), A2A activity; assay type: biochemical; conditions: read-out: Ave A2A cAMP IC50
Sequence of adenosine A2A receptor (P29274 whole entry): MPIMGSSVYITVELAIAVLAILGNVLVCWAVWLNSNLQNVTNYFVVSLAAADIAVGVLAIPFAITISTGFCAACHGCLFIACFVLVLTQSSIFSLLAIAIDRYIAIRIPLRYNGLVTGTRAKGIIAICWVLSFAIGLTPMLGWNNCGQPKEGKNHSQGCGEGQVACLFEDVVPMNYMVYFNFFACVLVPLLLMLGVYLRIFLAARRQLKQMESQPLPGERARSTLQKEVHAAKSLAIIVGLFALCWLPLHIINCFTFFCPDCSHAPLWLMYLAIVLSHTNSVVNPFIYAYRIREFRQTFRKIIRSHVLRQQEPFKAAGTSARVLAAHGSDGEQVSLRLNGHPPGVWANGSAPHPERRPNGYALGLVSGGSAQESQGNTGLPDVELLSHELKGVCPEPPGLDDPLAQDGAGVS

Sequence of adenosine A2B receptor (P29275 whole entry): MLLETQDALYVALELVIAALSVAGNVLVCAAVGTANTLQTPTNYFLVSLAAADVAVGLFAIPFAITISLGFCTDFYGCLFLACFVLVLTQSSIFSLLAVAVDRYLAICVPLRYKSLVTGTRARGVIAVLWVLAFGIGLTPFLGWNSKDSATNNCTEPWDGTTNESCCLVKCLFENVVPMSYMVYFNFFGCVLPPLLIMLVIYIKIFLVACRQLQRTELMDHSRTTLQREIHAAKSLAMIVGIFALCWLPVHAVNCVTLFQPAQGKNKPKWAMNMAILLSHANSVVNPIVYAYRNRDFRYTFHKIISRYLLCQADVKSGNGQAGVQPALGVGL

| Structure (SMILES) | Ratio (adenosine A2B receptor) | IC50 (adenosine A2B receptor) | IC50 (adenosine A2A receptor) |
| --- | --- | --- | --- |
| CC(C)(C)OC(=O)N[C@H]1CCN(C(=O)c2nc(NCc3cncc(F)c3)nc3ccsc23)C1 [Example Z245, tert-Butyl (S)-(1-(2-(((5-fluoropyridin-3-yl)methyl)amino)thieno[3,2-d]pyrimidine-4-carbonyl)pyrrolidin-3-yl)carbamate] | 1.87 | 50 to 100 nM | 100 to 500 nM |
| C[C@H](Nc1nc(C(=O)N2CC[C@@H](NC(=O)OC(C)(C)C)C2)c2sccc2n1)c1ccccn1 [Example Z246, tert-Butyl ((R)-1-(2-(((S)-1-(pyridin-2-yl)ethyl)amino)thieno[3,2-d]pyrimidine-4-carbonyl)pyrrolidin-3-yl)carbamate] | – | 10 to 50 nM | 100 to 500 nM |
| C[C@H](Nc1nc(C(=O)N2CC(O)C2)c2sc(N)cc2n1)c1cccnc1 [Example Z248, (S)-(6-Amino-2-((1-(pyridin-3-yl)ethyl)amino)thieno[3,2-d]pyrimidin-4-yl)(3-hydroxyazetidin-1-yl)methanone] | 15.23 | 50 to 100 nM | > 500 nM |
| O=C(c1nc(NCc2cncc(C(F)(F)F)c2)nc2ccsc12)N1CCC1 [Example Z257, Azetidin-1-yl(2-(((5-(trifluoromethyl)pyridin-3-yl)methyl)amino)thieno[3,2-d]pyrimidin-4-yl)methanone] | 9.16 | 50 to 100 nM | > 500 nM |
| O=C(c1nc(NCCc2ccccc2)nc2ccsc12)N1CCCC1 [Example Z258, (2-(Phenethylamino)thieno[3,2-d]pyrimidin-4-yl)(pyrrolidin-1-yl)methanone] | 1.70 | 100 to 500 nM | 100 to 500 nM |
| CS(=O)(=O)[C@@H]1CCN(C(=O)c2nc(NCc3cncc(F)c3)nc3ccsc23)C1 [Example Z261, (R)-(2-(((5-Fluoropyridin-3-yl)methyl)amino)thieno[3,2-d]pyrimidin-4-yl)(3-(methylsulfonyl)pyrrolidin-1-yl)methanone] | 10.23 | 100 to 500 nM | > 500 nM |
| C[C@H](Nc1nc(C(=O)N2CC[C@@H](S(C)(=O)=O)C2)c2sccc2n1)c1cccnc1 [Example Z262, ((R)-3-(Methylsulfonyl)pyrrolidin-1-yl)(2-(((S)-1-(pyridin-3-yl)ethyl)amino)thieno[3,2-d]pyrimidin-4-yl)methanone] | 1.12 | > 500 nM | > 500 nM |
| O=C(c1nc(NCc2cncc(C(F)(F)F)c2)nc2ccsc12)N1CC[C@H](O)C1 [Example Z264, (S)-(3-Hydroxypyrrolidin-1-yl)(2-(((5-(trifluoromethyl)pyridin-3-yl)methyl)amino)thieno[3,2-d]pyrimidin-4-yl)methanone] | 13.34 | > 500 nM | > 500 nM |
| C[C@H](O)CNC(=O)c1nc(NCc2cncc(C(F)(F)F)c2)nc2ccsc12 [Example Z265, (S)—N-(2-Hydroxypropyl)-2-(((5-(trifluoromethyl)pyridin-3-yl)methyl)amino)thieno[3,2-d]pyrimidine-4-carboxamide] | 16.94 | 100 to 500 nM | > 500 nM |
| C[C@@H](O)CNC(=O)c1nc(NCc2cncc(C(F)(F)F)c2)nc2ccsc12 [Example Z266, (R)—N-(2-Hydroxypropyl)-2-(((5-(trifluoromethyl)pyridin-3-yl)methyl)amino)thieno[3,2-d]pyrimidine-4-carboxamide] | 34.17 | 100 to 500 nM | > 500 nM |
| C[C@H](Nc1nc(C(=O)NC(CO)c2cccnc2)c2sccc2n1)c1ccccn1 (stereo partly drawn) [Example Z269, N-(2-Hydroxy-1-(pyridin-3-yl)ethyl)-2-(((S)-1-(pyridin-2-yl)ethyl)amino)thieno[3,2-d]pyrimidine-4-carboxamide] | 0.36 | > 500 nM | 100 to 500 nM |
| O=C(c1nc(NC(CO)c2cccnc2)nc2ccsc12)N1CCCC1 (centres unmarked) [Example Z270, (2-((2-Hydroxy-1-(pyridin-3-yl)ethyl)amino)thieno[3,2-d]pyrimidin-4-yl)(pyrrolidin-1-yl)methanone] | 27.81 | 10 to 50 nM | > 500 nM |
| O=C(c1nc(NCCn2ccnc2)nc2ccsc12)N1CCCC1 [Example Z273, (2-((2-(1H-Imidazol-1-yl)ethyl)amino)thieno[3,2-d]pyrimidin-4-yl)(pyrrolidin-1-yl)methanone] | 2.15 | > 500 nM | > 500 nM |
| C[C@H](Nc1nc(C(=O)N2CC[C@H](S(C)(=O)=O)C2)c2sccc2n1)c1ccccn1 [Example Z274] | 1.11 | 100 to 500 nM | 100 to 500 nM |
| C[C@H](Nc1nc(C(=O)N2CCCOC2)c2sccc2n1)c1ccccn1 [Example Z289, (S)-(1,3-Oxazinan-3-yl)(2-((1-(pyridin-2-yl)ethyl)amino)thieno[3,2-d]pyrimidin-4-yl)methanone] | 14.69 | 100 to 500 nM | > 500 nM |
| C[C@H](Nc1nc(C(=O)NCc2nccn2C)c2sccc2n1)c1ccccn1 [Example Z290, (S)—N-((1-Methyl-1H-imidazol-2-yl)methyl)-2-((1-(pyridin-2-yl)ethyl)amino)thieno[3,2-d]pyrimidine-4-carboxamide] | 1.63 | > 500 nM | > 500 nM |
| CO[C@H]1C[C@@H](NC(=O)c2nc(N[C@@H](C)c3cccnc3)nc3ccsc23)C1 [Example Z296, N-((1s,3R)-3-Methoxycyclobutyl)-2-(((S)-1-(pyridin-3-yl)ethyl)amino)thieno[3,2-d]pyrimidine-4-carboxamide] | 1.07 | 100 to 500 nM | 100 to 500 nM |
| C[C@H](Nc1nc(C(=O)Nc2ccccc2)c2sccc2n1)c1ccccn1 [Example Z303, (S)—N-Phenyl-2-((1-(pyridin-2-yl)ethyl)amino)thieno[3,2-d]pyrimidine-4-carboxamide] | 3.08 | 50 to 100 nM | 100 to 500 nM |
| C[C@H](Nc1nc(C(=O)NCc2ncc[nH]2)c2sccc2n1)c1ccccn1 [Example Z304, (S)—N-((1H-Imidazol-2-yl)methyl)-2-((1-(pyridin-2-yl)ethyl)amino)thieno[3,2-d]pyrimidine-4-carboxamide] | 2.03 | 100 to 500 nM | 100 to 500 nM |
| C[C@H](Nc1nc(C(=O)N[C@H]2C[C@H](O)C2)c2sccc2n1)c1cncc(Cl)c1 [Example Z306, 2-(((S)-1-(5-Chloropyridin-3-yl)ethyl)amino)-N-((1r,3S)-3-hydroxycyclobutyl)thieno[3,2-d]pyrimidine-4-carboxamide] | 40.62 | 10 to 50 nM | > 500 nM |
| COc1cncc(NC(=O)c2nc(N[C@@H](C)c3ccccn3)nc3ccsc23)c1 [Example Z307, (S)—N-(5-Methoxypyridin-3-yl)-2-((1-(pyridin-2-yl)ethyl)amino)thieno[3,2-d]pyrimidine-4-carboxamide] | 5.89 | 10 to 50 nM | 100 to 500 nM |
| C[C@H](Nc1nc(C(=O)N2CC[C@@H](NC(=O)OC(C)(C)C)C2)c2sccc2n1)c1cccnc1 [Example Z313, tert-Butyl ((R)-1-(2-(((S)-1-(pyridin-3-yl)ethyl)amino)thieno[3,2-d]pyrimidine-4-carbonyl)pyrrolidin-3-yl)carbamate] | 0.29 | > 500 nM | 100 to 500 nM |
| C[C@H](Nc1nc(C(=O)N2CC[C@H](NC(=O)OC(C)(C)C)C2)c2sccc2n1)c1cccnc1 [Example Z314, tert-Butyl ((S)-1-(2-(((S)-1-(pyridin-3-yl)ethyl)amino)thieno[3,2-d]pyrimidine-4-carbonyl)pyrrolidin-3-yl)carbamate] | 0.46 | 100 to 500 nM | 50 to 100 nM |
| C[C@H](Nc1nc(C(=O)N2CC[C@H](NC(=O)OC(C)(C)C)C2)c2sccc2n1)c1ccccn1 [Example Z315, tert-Butyl ((S)-1-(2-(((S)-1-(pyridin-2-yl)ethyl)amino)thieno[3,2-d]pyrimidine-4-carbonyl)pyrrolidin-3-yl)carbamate] | 0.67 | 50 to 100 nM | 50 to 100 nM |
| CC(=O)N[C@@H]1CCN(C(=O)c2nc(N[C@@H](C)c3cccnc3)nc3ccsc23)C1 [Example Z316, N—((R)-1-(2-(((S)-1-(Pyridin-3-yl)ethyl)amino)thieno[3,2-d]pyrimidine-4-carbonyl)pyrrolidin-3-yl)acetamide] | 2.06 | > 500 nM | > 500 nM |
| CC(=O)N[C@@H]1CCN(C(=O)c2nc(N[C@@H](C)c3ccccn3)nc3ccsc23)C1 [Example Z317, N—((R)-1-(2-(((S)-1-(Pyridin-2-yl)ethyl)amino)thieno[3,2-d]pyrimidine-4-carbonyl)pyrrolidin-3-yl)acetamide] | 6.69 | > 500 nM | > 500 nM |
| CC(=O)N[C@@H]1CCN(C(=O)c2nc(NCc3cncc(F)c3)nc3ccsc23)C1 [Example Z318, (R)—N-(1-(2-(((5-Fluoropyridin-3-yl)methyl)amino)thieno[3,2-d]pyrimidine-4-carbonyl)pyrrolidin-3-yl)acetamide] | 17.41 | > 500 nM | > 500 nM |
| CC(=O)N[C@@H]1CCN(C(=O)c2nc(N[C@@H](C)c3cncc(F)c3)nc3ccsc23)C1 [Example Z319, N—((R)-1-(2-(((S)-1-(5-Fluoropyridin-3-yl)ethyl)amino)thieno[3,2-d]pyrimidine-4-carbonyl)pyrrolidin-3-yl)acetamide] | 22.72 | 50 to 100 nM | > 500 nM |
| COC[C@@H](Nc1nc(C(=O)NC[C@H](C)O)c2sccc2n1)c1cccnc1 [Example Z320, N—((S)-2-Hydroxypropyl)-2-(((S)-2-methoxy-1-(pyridin-3-yl)ethyl)amino)thieno[3,2-d]pyrimidine-4-carboxamide] | 3.92 | 50 to 100 nM | 100 to 500 nM |
